Experimental data published in PMC2864300, “Regulation of NOXO1 Activity through Reversible Interactions with p22^phox and NOXA1” (PLoS ONE, 2010).
Where a SMILES comes first, the peptide text is derived from it. Where no end group is shown, it is not given here.

How the values were obtained:
[1] = target: T1, tandem SH3 domains of human NOXO1 (Homo sapiens, UniProt Q8NFA2); assay: ITC, binding to human NOXO1 tandem SH3 domains; conditions: 18°C; for Kd: pH 7.4, titrated against tandem SH3 domains
T1 construct: was titrated against the tandem SH3 domains as well as against the individual SH3A and SH3B domains; GST (N, cleaved yes); made in house; host or cells: Escherichia coli BL21 STAR
T1 sequence (Q8NFA2 157-290 isoform Q8NFA2-4): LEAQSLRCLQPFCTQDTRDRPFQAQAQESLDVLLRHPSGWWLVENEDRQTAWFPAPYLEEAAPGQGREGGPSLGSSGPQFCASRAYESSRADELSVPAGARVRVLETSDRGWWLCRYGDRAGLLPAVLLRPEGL
Experimental: (§1) Complex formation between NOXO1, NOXA1 and p22^phox fragments or peptides were measured by isothermal titration calorimetry using a MicroCal VP-ITC calorimeter (MicroCal Inc., Northampton, USA). All proteins were dialysed against ITC buffer (150 mM NaCl, 1 mM DTT and 50 mM HEPES, pH 7.4) and performed at 18°C. All peptides were dissolved in ITC buffer. Typically, 20–40 µM of protein in the cell was titrated by stepwise injections of a total of 200–300 µM of the ligand. Heats of dilution were determined by titrating protein or peptide into ITC buffer and subtracted from the raw ITC data prior to analysis with the software, Origin version 7.0, assuming a single-site binding model. Data were averaged over three to five experiments.

[2] = system: interaction between NOXO1 and p22^phox; conditions: cited from earlier work
Description: In this study we provide evidence that the assembly of the NOX1 oxidase complex can be regulated through reversible protein-protein interactions. […] However, the inhibitory effect of the C-terminal tail is less pronounced in NOXO1 than in the homologous p47^phox subunit of the phagocytic oxidase, and may explain why the NOX1 system is capable of producing low levels of superoxide, in a constitutive ...

human NOX1 = conditions: ref [32]–[34]; cited from earlier work
[3] = system: mouse proteins (NOX1 system); conditions: ref [32]–[34]; cited from earlier work
human NOXA1 SH3 = target: T2, human NOXA1 SH3 (Homo sapiens, UniProt Q86UR1); assay: ITC, binding to human NOXA1 SH3; conditions: 18°C, 150 mM NaCl, 1 mM DTT, 50 mM HEPES, pH 7.4, peptide in syringe, human NOXA1 SH3 in cell, averaged over three to five experiments, read-out: K (Kd)
T2 construct: GST (N, cleaved yes); made in house; host or cells: Escherichia coli BL21 STAR
T2 sequence (Q86UR1 399-458 limits assumed): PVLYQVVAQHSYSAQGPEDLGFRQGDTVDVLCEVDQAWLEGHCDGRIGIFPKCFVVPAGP
Experimental: as §1

Compound: ERRPRRQGRPRG [peptide corresponding to basic region, residues 347–359, of C-terminal tail of human NOXO1]
- binding to the tandem SH3 domains (qualitative) ([1]; pH 7.4, data not shown): no binding was detected

Compound: CCCCC/C=C\C/C=C\C/C=C\C/C=C\CCCC(=O)O [arachidonic acid]
- effect on interaction between NOXO1 and p22^phox [2]: could increase the interaction between NOXO1 and p22^phox

Compound: CCCCCCCCCCCCCC(=O)O[C@@H]1[C@@H](C)[C@@]2(O)[C@@H](C=C(CO)C[C@]3(O)C(=O)C(C)=C[C@@H]23)[C@@H]2C(C)(C)[C@]12OC(C)=O [PMA]
- superoxide production by human NOX1 (human NOX1): increased
- superoxide production with the mouse proteins [3]: a similar increase could not be observed with the mouse proteins

Compound: TAPPPTVPTRPS [PeptideA-short]
- Kd [1]: ~50 µM
- Kd (human NOXA1 SH3): > 70 µM

Compound: CC[C@H](C)[C@H](NC(=O)[C@H](C)NC(=O)CNC(=O)[C@@H]1CCCN1C(=O)[C@H](CO)NC(=O)[C@@H]1CCCN1C(=O)[C@H](CCCNC(=N)N)NC(=O)[C@@H](NC(=O)[C@@H]1CCCN1C(=O)[C@@H](NC(=O)[C@@H](NC(=O)[C@@H]1CCCN1C(=O)[C@@H]1CCCN1C(=O)[C@@H]1CCCN1C(=O)[C@H](C)NC(=O)[C@@H](N)[C@@H](C)O)[C@@H](C)O)C(C)C)[C@@H](C)O)C(=O)N[C@@H](CCC(N)=O)C(=O)N[C@@H](CO)C(=O)N[C@@H](CCCNC(=N)N)C(=O)N[C@@H](CS)C(=O)N[C@@H](CS)C(=O)N[C@H](C(=O)N[C@H](C(=O)N[C@H](C(=O)N[C@@H](CCCNC(=N)N)C(=O)N[C@@H](CCCNC(=N)N)C(=O)N[C@@H](C)C(=O)N[C@@H](CC(C)C)C(=O)N[C@@H](CCC(=O)O)C(=O)O)[C@@H](C)O)C(C)C)[C@@H](C)O [PeptideA] (H-TAPPPTVPTRPSPGAIQSRCCTVTRRALE-OH)
- Kd [1]: ~50 µM
